In assay [1] the test system is antibodies in sera from SARS patients (sera 1a, 1b, 2, 6, 37, 62, London, SARS-yellow, SARS-green). The class given is binding, human. Set-up: Binding of serum 6 to linear peptides of protein X1 of SARS-CoV Urbani / Binding of serum 37 to linear peptides of protein X1 of SARS-CoV Urbani / Binding of serum 6 to looped/cyclic peptide (PEPSCAN-ELISA) / Binding of serum 37 to looped/cyclic peptide (PEPSCAN-ELISA) / Binding of serum 37 to looped/cyclic peptides of protein X1 of SARS-CoV Urbani / Binding of serum 6 to linear peptides of protein X2 / Binding of serum 37 to linear peptides of protein X2 / Binding of serum 37 to looped/cyclic peptides of protein X2 of SARS-CoV Urbani / Binding of serum 6 to linear peptides of protein M of SARS-CoV Urbani / Binding of serum 37 to linear peptides of protein M of SARS-CoV Urbani / Binding of serum 6 to looped/cyclic peptides of protein M of SARS-CoV Urbani / Binding of serum 37 to looped/cyclic peptides of protein M of SARS-CoV Urbani / Binding of serum 6 to linear peptides of protein X3 of SARS-CoV Urbani / Binding of serum 37 to linear peptides of protein X3 of SARS-CoV Urbani / Binding of serum 37 to looped/cyclic peptides of protein X3 of SARS-CoV Urbani / Binding of serum 6 to linear peptides of protein X4 of SARS-CoV Urbani / Binding of serum 37 to linear peptides of protein X4 of SARS-CoV Urbani / Binding of serum 37 to looped/cyclic peptides of protein X4 of SARS-CoV Urbani / Binding of serum 6 to linear peptides of protein X5 of SARS-CoV Urbani / Binding of serum 37 to linear peptides of protein X5 of SARS-CoV Urbani / Binding of serum 37 to looped/cyclic peptides of protein X5 of SARS-CoV Urbani / Binding of serum 6 to linear peptides of protein N of SARS-CoV Urbani / Binding of serum 37 to linear peptides of protein N of SARS-CoV Urbani / Binding of serum 6 to linear peptide (PEPSCAN-ELISA) / Binding of serum 1a to looped/cyclic peptides of protein N of SARS-CoV Urbani / Binding of serum 1b to looped/cyclic peptides of protein N of SARS-CoV Urbani / Binding of serum 2 to looped/cyclic peptides of protein N of SARS-CoV Urbani / Binding of serum 6 to looped/cyclic peptides of protein N of SARS-CoV Urbani / Binding of serum 37 to looped/cyclic peptides of protein N of SARS-CoV Urbani / Binding of serum 62 to looped/cyclic peptides of protein N of SARS-CoV Urbani / Binding of serum London to looped/cyclic peptides of protein N of SARS-CoV Urbani / Binding of serum SARS-green to looped/cyclic peptides of protein N of SARS-CoV Urbani: unit not given here.

The test system of assay [2] is control sera (pooled serum of ten healthy LUMC hospital workers; commercial negative donor pooled serum from the Dutch bloodbank). Format: binding, human. On the set-up: Binding of Control serum LUMC to linear peptides / Binding of Control serum Blood-bank to linear peptides / Binding of Control serum LUMC to looped peptides / Binding of Control Serum Blood-Bank to Looped peptides / Binding of Control serum LUMC to linear peptides of the protein M of SARS-CoV Urbani / Binding of Control serum Blood-bank to linear peptides of the protein M of SARS-CoV Urbani / Binding of Control serum LUMC to looped peptides of the protein M of SARS-CoV Urbani / Binding of Control Serum Blood-Bank to Looped peptides of the protein M of SARS-CoV Urbani: unit not given here.

The subject of assay [3] is rabbit serum obtained by immunizing a rabbit with the SARS-CoV strain Frankfurt 1. The class given is binding. Set-up: Binding of a rabbit serum to linear peptides / Binding of a rabbit serum to looped peptides / Rabbit serum linear peptides / Rabbit serum looped peptides / Binding of a rabbit serum to linear peptides of protein N of SARS-CoV Urbani (Rabbit serum linear peptides) / Binding of a rabbit serum to looped/cyclic peptides of protein N of SARS-CoV Urbani (Rabbit serum looped peptides): unit not given here.

For RYRIGNYKLNTDHAG, in assay [1], the “Binding of serum 1a to linear peptides of protein M of SARS-CoV Urbani” value was determined as 0.7, the “Binding of serum 1a to looped/cyclic peptides of protein M of SARS-CoV Urbani” value was 0.7, the “Binding of serum 1b to linear peptides of protein M of SARS-CoV Urbani” value was 0.5 and the “Binding of serum 1b to looped/cyclic peptides of protein M of SARS-CoV Urbani” value is given as 0.6. Moreover, in assay [1], the “Binding of serum 2 to linear peptides of protein M of SARS-CoV Urbani” value worked out at 0.4, the “Binding of serum 2 to looped/cyclic peptides of protein M of SARS-CoV Urbani” value is 0.6, the “Binding of serum 6 to linear peptides of protein M of SARS-CoV Urbani” value was 0.2 and the “Binding of serum 6 to looped/cyclic peptides of protein M of SARS-CoV Urbani” value was determined as 0.9. In addition, in assay [1], the “Binding of serum 37 to linear peptides of protein M of SARS-CoV Urbani” value was found to be 0.6, the “Binding of serum 37 to looped/cyclic peptides of protein M of SARS-CoV Urbani” value was 0.6, the “Binding of serum 62 to linear peptides of protein M of SARS-CoV Urbani” value turned out to be 0.5 and the “Binding of serum 62 to looped/cyclic peptides of protein M of SARS-CoV Urbani” value came to 0.6. For the same sequence, in assay [1], the “Binding of serum London to linear peptides of protein M of SARS-CoV Urbani” value came out at 0.5, the “Binding of serum London to looped/cyclic peptides of protein M of SARS-CoV Urbani” value stood at 0.4, the “Binding of serum SARS-green to linear peptides of protein M of SARS-CoV Urbani” value is 0.4 and the “Binding of serum SARS-green to looped/cyclic peptides of protein M of SARS-CoV Urbani” value was 0.3. In assay [1], the “Binding of serum SARS-yellow to linear peptides of protein M of SARS-CoV Urbani” value stood at 0.2 and the “Binding of serum SARS-yellow to looped/cyclic peptides of protein M of SARS-CoV Urbani” value came to 0.8. In addition, in assay [2], the “Binding of Control Serum Blood-Bank to Looped peptides of the protein M of SARS-CoV Urbani” value worked out at 0.7, the “Binding of Control serum Blood-bank to linear peptides of the protein M of SARS-CoV Urbani” value worked out at 0.7, the “Binding of Control serum LUMC to linear peptides of the protein M of SARS-CoV Urbani” value is reported as 0.5 and the “Binding of Control serum LUMC to looped peptides of the protein M of SARS-CoV Urbani” value is recorded as 0.7. Further, in assay [3], the “Rabbit serum linear peptides” value came out at 0.1 and the “Rabbit serum looped peptides” value was found to be 0.2.
SELVIGAVIIRGHLR: in assay [1], the “Binding of serum 1a to linear peptides of protein M of SARS-CoV Urbani” value is recorded as 0.7, the “Binding of serum 1a to looped/cyclic peptides of protein M of SARS-CoV Urbani” value was 0.8, the “Binding of serum 1b to linear peptides of protein M of SARS-CoV Urbani” value was determined as 0.6 and the “Binding of serum 1b to looped/cyclic peptides of protein M of SARS-CoV Urbani” value amounted to 0.7. Besides, in assay [1], the “Binding of serum 2 to linear peptides of protein M of SARS-CoV Urbani” value amounted to 0.6, the “Binding of serum 2 to looped/cyclic peptides of protein M of SARS-CoV Urbani” value stood at 0.8, the “Binding of serum 6 to linear peptides of protein M of SARS-CoV Urbani” value was determined as 0.7 and the “Binding of serum 6 to looped/cyclic peptides of protein M of SARS-CoV Urbani” value is 0.6. Moreover, in assay [1], the “Binding of serum 37 to linear peptides of protein M of SARS-CoV Urbani” value was 0.5, the “Binding of serum 37 to looped/cyclic peptides of protein M of SARS-CoV Urbani” value is 0.8, the “Binding of serum 62 to linear peptides of protein M of SARS-CoV Urbani” value is given as 0.4 and the “Binding of serum 62 to looped/cyclic peptides of protein M of SARS-CoV Urbani” value was found to be 0.8. Moreover, in assay [1], the “Binding of serum London to linear peptides of protein M of SARS-CoV Urbani” value was determined as 0.4, the “Binding of serum London to looped/cyclic peptides of protein M of SARS-CoV Urbani” value is recorded as 0.2, the “Binding of serum SARS-green to linear peptides of protein M of SARS-CoV Urbani” value was determined as 0.5 and the “Binding of serum SARS-green to looped/cyclic peptides of protein M of SARS-CoV Urbani” value was found to be 0.3. For the same sequence, in assay [1], the “Binding of serum SARS-yellow to linear peptides of protein M of SARS-CoV Urbani” value came out at 0.3 and the “Binding of serum SARS-yellow to looped/cyclic peptides of protein M of SARS-CoV Urbani” value was 0.9. In assay [2], the “Binding of Control Serum Blood-Bank to Looped peptides of the protein M of SARS-CoV Urbani” value came out at 0.6, the “Binding of Control serum Blood-bank to linear peptides of the protein M of SARS-CoV Urbani” value is listed as 0.8, the “Binding of Control serum LUMC to linear peptides of the protein M of SARS-CoV Urbani” value is 0.9 and the “Binding of Control serum LUMC to looped peptides of the protein M of SARS-CoV Urbani” value came out at 0.6. In assay [3], the “Rabbit serum linear peptides” value came to 0.2 and the “Rabbit serum looped peptides” value came out at 0.2.
With SFNPETNILLNVPLR, in assay [1], the “Binding of serum 1a to linear peptides of protein M of SARS-CoV Urbani” value stood at 0.7, the “Binding of serum 1a to looped/cyclic peptides of protein M of SARS-CoV Urbani” value is recorded as 0.8, the “Binding of serum 1b to linear peptides of protein M of SARS-CoV Urbani” value amounted to 0.4 and the “Binding of serum 1b to looped/cyclic peptides of protein M of SARS-CoV Urbani” value was 0.7. In assay [1], the “Binding of serum 2 to linear peptides of protein M of SARS-CoV Urbani” value came to 0.5, the “Binding of serum 2 to looped/cyclic peptides of protein M of SARS-CoV Urbani” value turned out to be 0.9, the “Binding of serum 6 to linear peptides of protein M of SARS-CoV Urbani” value was 0.3 and the “Binding of serum 6 to looped/cyclic peptides of protein M of SARS-CoV Urbani” value was 0.8. Besides, in assay [1], the “Binding of serum 37 to linear peptides of protein M of SARS-CoV Urbani” value is on record as 0.7, the “Binding of serum 37 to looped/cyclic peptides of protein M of SARS-CoV Urbani” value is 0.7, the “Binding of serum 62 to linear peptides of protein M of SARS-CoV Urbani” value is 0.7 and the “Binding of serum 62 to looped/cyclic peptides of protein M of SARS-CoV Urbani” value is 0.8. For the same sequence, in assay [1], the “Binding of serum London to linear peptides of protein M of SARS-CoV Urbani” value was 0.3, the “Binding of serum London to looped/cyclic peptides of protein M of SARS-CoV Urbani” value worked out at 0.3, the “Binding of serum SARS-green to linear peptides of protein M of SARS-CoV Urbani” value is recorded as 0.3 and the “Binding of serum SARS-green to looped/cyclic peptides of protein M of SARS-CoV Urbani” value is given as 0.3. Besides, in assay [1], the “Binding of serum SARS-yellow to linear peptides of protein M of SARS-CoV Urbani” value is 0.1 and the “Binding of serum SARS-yellow to looped/cyclic peptides of protein M of SARS-CoV Urbani” value was 1.0. Moreover, in assay [2], the “Binding of Control Serum Blood-Bank to Looped peptides of the protein M of SARS-CoV Urbani” value is listed as 1.0, the “Binding of Control serum Blood-bank to linear peptides of the protein M of SARS-CoV Urbani” value is 0.7, the “Binding of Control serum LUMC to linear peptides of the protein M of SARS-CoV Urbani” value was 0.4 and the “Binding of Control serum LUMC to looped peptides of the protein M of SARS-CoV Urbani” value is on record as 1.0. In addition, in assay [3], the “Rabbit serum linear peptides” value was determined as 0.5 and the “Rabbit serum looped peptides” value is 0.4.
Take SLLKTHRMCKYTQST: in assay [1], the “Binding of serum 1a to linear peptides of protein X2” value is listed as 0.8, the “Binding of serum 1a to looped/cyclic peptides of protein X2 of SARS-CoV Urbani” value is listed as 0.3, the “Binding of serum 1b to linear peptides of protein X2” value is listed as 0.6 and the “Binding of serum 1b to looped/cyclic peptides of protein X2 of SARS-CoV Urbani” value was found to be 0.2. For the same sequence, in assay [1], the “Binding of serum 2 to linear peptides of protein X2” value is reported as 0.6, the “Binding of serum 2 to looped/cyclic peptides of protein X2 of SARS-CoV Urbani” value is 0.1, the “Binding of serum 6 to linear peptides of protein X2” value is given as 0.6 and the “Binding of serum 6 to looped/cyclic peptides of protein X2 of SARS-CoV Urbani” value turned out to be 0.2. For the same sequence, in assay [1], the “Binding of serum 37 to linear peptides of protein X2” value came to 0.6, the “Binding of serum 37 to looped/cyclic peptides of protein X2 of SARS-CoV Urbani” value was 0.3, the “Binding of serum 62 to linear peptides of protein X2” value amounted to 0.7 and the “Binding of serum 62 to looped/cyclic peptides of protein X2 of SARS-CoV Urbani” value worked out at 0.4. Also, in assay [1], the “Binding of serum London to linear peptides of protein X2” value is given as 0.6, the “Binding of serum London to looped/cyclic peptides of protein X2 of SARS-CoV Urbani” value amounted to 0.2, the “Binding of serum SARS-green to linear peptides of protein X2” value was 0.7 and the “Binding of serum SARS-green to looped/cyclic peptides of protein X2 of SARS-CoV Urbani” value was 0.1. Moreover, in assay [1], the “Binding of serum SARS-yellow to linear peptides of protein X2” value came to 0.7 and the “Binding of serum SARS-yellow to looped/cyclic peptides of protein X2 of SARS-CoV Urbani” value amounted to 0.2. Also, in assay [2], the “Binding of Control Serum Blood-Bank to Looped peptides” value came out at 0.4, the “Binding of Control serum Blood-bank to linear peptides” value came to 0.9, the “Binding of Control serum LUMC to linear peptides” value is 0.8 and the “Binding of Control serum LUMC to looped peptides” value was 0.4. In assay [3], the “Binding of a rabbit serum to linear peptides” value was 0.3 and the “Binding of a rabbit serum to looped peptides” value stood at 0.3.

These data come from patent publication US20070128217A1 (priority 2003, published 2007).
